Measurements from US20250388553A1 (Incyte Corporation, priority 2018, published 2025).
Counter-ions that a name gives are not always drawn.

Columns and labels:
[1] = molecular target: PI3Kγ (p110γ) Recombinant Human Protein (Homo sapiens (Human), UniProt P48736); assay: PI3K-γ scintillation proximity assay; format: biochemical; details: Table A1; scintillation proximity assay, recombinant human p110γ
Description: Example B. PI3K-γ Scintillation Proximity Assay
(§1) Materials: [γ-^33P]ATP (10 mCi/mL) and Wheat Germ Agglutinin (WGA) YSi SPA Scintillation Beads was purchased from Perkin Elmer (Waltham, MA). Lipid kinase substrate, D-myo-Phosphatidylinositol 4,5-bisphosphate (PtdIns(4,5)P2)D (+)-sn-1,2-di-O-octanoylglyceryl, 3-O-phospho linked (PIP2), CAS 204858-53-7, was purchased from Echelon Biosciences (Salt Lake City, UT). PI3Kγ (p110γ) Recombinant Human Protein was purchased from Life technology (Grand Island, NY). ATP, MgCl2, DTT, EDTA, MOPS and CHAPS were purchased from Sigma Aldrich (St. Louis, MO).
(§2) The kinase reaction was conducted in polystyrene 384-well Greiner Bio-one white plate from Thermo Fisher Scientific in a final volume of 25 L. Inhibitors were first diluted serially in DMSO and added to the plate wells before the addition of other reaction components. The final concentration of DMSO in the assay was 2%. The PI3Kγ assay was carried out at room temperature in 20 mM MOPS, pH 6.7, 10 mM MgCl2, 5 mM DTT and CHAPS 0.03%. Reactions were initiated by the addition of ATP, the final reaction mixture consisted of 20 µM […], 0.5 μCi [γ-^33P]ATP, 13 nM PI3Kγ. Reactions were incubated for 120 min and terminated by the addition of 40 μL SPA beads suspended in quench buffer: 163 mM potassium phosphate pH 7.8, 20% glycerol, 25 mM EDTA. The final concentration of SPA beads is 1.0 mg/mL. After the plate sealing, plates were shaken overnight at room temperature and centrifuged at 1500 rpm for 10 min, the radioactivity of the product was determined by scintillation counting on Topcount (Perkin-Elmer). IC50 determination was performed by fitting the curve of percent of the solvent control activity versus the log of the inhibitor concentration using the GraphPad Prism 6.0 software.
(§3) The compounds of the Examples were tested in the assays described in Examples A, B and C and found to have the IC50s are shown in Tables A1, A2, A3 and A4.

[2] = molecular target: PI3Kδ (p1106/p85a) Recombinant Human Protein (Homo sapiens (Human), UniProt O00329); assay: PI3Kδ scintillation proximity assay; format: biochemical; details: scintillation proximity assay, recombinant human PI3Kδ
Chain of PI3Kδ (p1106/p85a) Recombinant Human Protein (O00329 whole entry): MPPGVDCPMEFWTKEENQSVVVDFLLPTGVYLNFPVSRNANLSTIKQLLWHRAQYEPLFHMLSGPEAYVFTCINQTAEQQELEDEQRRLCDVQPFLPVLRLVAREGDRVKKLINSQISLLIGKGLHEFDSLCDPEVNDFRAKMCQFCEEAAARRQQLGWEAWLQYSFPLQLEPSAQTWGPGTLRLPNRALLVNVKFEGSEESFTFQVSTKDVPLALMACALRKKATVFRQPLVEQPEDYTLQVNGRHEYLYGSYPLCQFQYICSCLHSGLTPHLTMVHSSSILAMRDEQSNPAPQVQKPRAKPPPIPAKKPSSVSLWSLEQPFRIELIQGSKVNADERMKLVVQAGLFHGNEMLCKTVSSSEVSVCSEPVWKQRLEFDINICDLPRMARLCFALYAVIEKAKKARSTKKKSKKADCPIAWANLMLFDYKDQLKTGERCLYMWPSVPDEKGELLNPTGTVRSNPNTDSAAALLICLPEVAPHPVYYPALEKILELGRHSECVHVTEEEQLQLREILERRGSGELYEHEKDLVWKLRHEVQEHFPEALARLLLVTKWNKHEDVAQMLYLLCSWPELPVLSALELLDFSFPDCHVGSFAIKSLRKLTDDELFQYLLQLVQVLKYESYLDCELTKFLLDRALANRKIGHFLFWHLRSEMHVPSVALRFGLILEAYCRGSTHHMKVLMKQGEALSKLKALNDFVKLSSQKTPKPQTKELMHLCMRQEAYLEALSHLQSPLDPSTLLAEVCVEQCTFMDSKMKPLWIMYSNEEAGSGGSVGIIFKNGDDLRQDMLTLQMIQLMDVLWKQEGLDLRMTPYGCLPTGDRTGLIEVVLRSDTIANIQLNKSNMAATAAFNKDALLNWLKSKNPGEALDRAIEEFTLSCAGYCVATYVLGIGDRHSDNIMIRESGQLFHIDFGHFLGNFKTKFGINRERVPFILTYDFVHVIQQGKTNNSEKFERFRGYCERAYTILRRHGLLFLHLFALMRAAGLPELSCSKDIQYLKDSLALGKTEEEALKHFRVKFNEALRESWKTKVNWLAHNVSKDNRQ
Chain of PI3Kδ (p1106/p85a) Recombinant Human Protein (P27986 whole entry partner): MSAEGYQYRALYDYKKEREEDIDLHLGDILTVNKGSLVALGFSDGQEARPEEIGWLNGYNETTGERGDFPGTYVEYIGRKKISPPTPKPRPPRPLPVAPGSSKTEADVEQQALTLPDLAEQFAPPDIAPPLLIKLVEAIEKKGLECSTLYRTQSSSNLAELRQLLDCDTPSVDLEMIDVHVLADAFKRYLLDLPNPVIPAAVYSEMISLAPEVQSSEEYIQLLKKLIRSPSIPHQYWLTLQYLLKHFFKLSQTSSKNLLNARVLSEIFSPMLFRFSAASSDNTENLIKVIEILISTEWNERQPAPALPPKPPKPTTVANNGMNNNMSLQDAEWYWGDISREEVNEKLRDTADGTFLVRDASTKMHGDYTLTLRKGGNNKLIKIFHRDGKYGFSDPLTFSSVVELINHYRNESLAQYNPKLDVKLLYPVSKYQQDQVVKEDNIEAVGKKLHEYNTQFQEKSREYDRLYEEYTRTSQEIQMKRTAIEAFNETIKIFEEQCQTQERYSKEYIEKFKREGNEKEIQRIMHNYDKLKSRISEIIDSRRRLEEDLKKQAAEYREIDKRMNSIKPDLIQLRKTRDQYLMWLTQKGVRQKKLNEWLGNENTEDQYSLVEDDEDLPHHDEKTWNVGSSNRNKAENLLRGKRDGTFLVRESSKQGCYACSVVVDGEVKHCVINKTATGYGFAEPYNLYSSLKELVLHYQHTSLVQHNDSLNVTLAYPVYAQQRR
Description: Example C. PI3Kδ Scintillation Proximity Assay
as §1, with “PI3Kδ (p1106/p85a)” for “PI3Kγ (p110γ)”, “Eurofins (St Charles, MO).” for “Life technology (Grand Island, NY).”
as §2, with “25 μL.” for “25 L.”, “The PI3Kδ” for “The PI3Kγ”, “[γ-^33P]ATP, 3.4” for “[γ-^33P]ATP, 13”, “nM PI3Kδ.” for “nM PI3Kγ.”, “Topcount (PerkinElmer).” for “Topcount (Perkin-Elmer).”
as §3

Chain of PI3Kγ (p110γ) Recombinant Human Protein (P48736 whole entry): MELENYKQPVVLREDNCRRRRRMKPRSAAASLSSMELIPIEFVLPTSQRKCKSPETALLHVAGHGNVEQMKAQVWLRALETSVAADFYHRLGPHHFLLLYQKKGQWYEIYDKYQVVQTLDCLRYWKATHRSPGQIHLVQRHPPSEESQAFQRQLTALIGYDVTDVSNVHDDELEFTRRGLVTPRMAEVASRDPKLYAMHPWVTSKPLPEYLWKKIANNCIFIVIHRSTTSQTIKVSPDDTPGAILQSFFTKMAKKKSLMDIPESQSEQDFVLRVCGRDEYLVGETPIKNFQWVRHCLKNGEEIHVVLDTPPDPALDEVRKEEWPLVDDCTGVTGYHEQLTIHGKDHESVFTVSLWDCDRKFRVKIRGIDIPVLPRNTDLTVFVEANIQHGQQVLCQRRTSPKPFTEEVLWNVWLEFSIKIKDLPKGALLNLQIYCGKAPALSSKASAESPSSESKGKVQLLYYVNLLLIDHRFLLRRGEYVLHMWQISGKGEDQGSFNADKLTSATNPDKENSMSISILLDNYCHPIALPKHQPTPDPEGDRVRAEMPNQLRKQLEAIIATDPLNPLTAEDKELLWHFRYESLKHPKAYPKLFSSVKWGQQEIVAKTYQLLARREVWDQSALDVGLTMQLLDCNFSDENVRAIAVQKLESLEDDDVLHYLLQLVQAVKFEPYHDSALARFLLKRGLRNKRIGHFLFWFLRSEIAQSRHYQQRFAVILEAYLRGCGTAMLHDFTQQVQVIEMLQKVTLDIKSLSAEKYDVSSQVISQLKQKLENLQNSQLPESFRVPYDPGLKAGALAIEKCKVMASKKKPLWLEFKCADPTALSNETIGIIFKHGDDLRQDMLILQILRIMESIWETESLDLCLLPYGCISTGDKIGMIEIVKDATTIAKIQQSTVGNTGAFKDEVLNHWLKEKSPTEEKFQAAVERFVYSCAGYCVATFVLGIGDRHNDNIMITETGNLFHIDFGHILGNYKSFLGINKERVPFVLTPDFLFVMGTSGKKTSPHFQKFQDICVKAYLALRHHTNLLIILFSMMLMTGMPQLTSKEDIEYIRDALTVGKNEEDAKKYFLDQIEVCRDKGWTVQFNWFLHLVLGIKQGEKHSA

SMILES | IC50 [1] [nM] | IC50 ([2]; Table A1) [nM] | IC50 ([2]; Table A4) [nM]
Cc1ccc(C(O)(C(N)=O)C(F)(F)F)cc1-c1cnc(N)c(C(=O)NC2CC3CCC2O3)n1 (single isomer, unassigned) [Example 30, 3-amino-6-(5-(3-amino-1,1,1-trifluoro-2-hydroxy-3-oxopropan-2-yl)-2-methylphenyl)-N-(7-oxabicyclo[2.2.1]heptan-2-yl)pyrazine-2-carboxamide] | < 100 | < 100 | 
Cc1ccc(C(O)(C(N)=O)C(F)(F)F)cc1-c1cnc(N)c(C(=O)NCC(O)C(F)(F)F)n1 (single isomer, unassigned) [Example 43B, 3-amino-6-(5-(3-amino-1,1,1-trifluoro-2-hydroxy-3-oxopropan-2-yl)-2-methylphenyl)-N-(3,3,3-trifluoro-2-hydroxypropyl)pyrazine-2-carboxamide] | < 100 | < 100 | 
Cc1ccc(C(O)(C(N)=O)C(F)(F)F)cc1-c1cnc(N)c(C2CC(C(=O)NC(C)C)C2)n1 (single isomer, unassigned) [Example 111, 3-(3-Amino-6-(5-(3-amino-1,1,1-trifluoro-2-hydroxy-3-oxopropan-2-yl)-2-methylphenyl)pyrazin-2-yl)-N-isopropylcyclobutane-1-carboxamide] |  |  | 100 to 500
Cc1ccc(C(O)(C(N)=O)C(F)(F)F)cc1-c1cnc(N)c(C(=O)NCC(C)(C)O)n1 (stereo not shown) [Example 1, 3-Amino-6-(5-(3-amino-1,1,1-trifluoro-2-hydroxy-3-oxopropan-2-yl)-2-methylphenyl)-N-(2-hydroxy-2-methylpropyl)pyrazine-2-carboxamide] | < 100 | < 100 | 
Cc1ccc(C(O)(C(N)=O)C(F)(F)F)cc1-c1cnc(N)c(C(=O)NC2CCOCC2)n1 (stereo not shown) [Example 2, 3-amino-6-(5-(3-amino-1,1,1-trifluoro-2-hydroxy-3-oxopropan-2-yl)-2-methylphenyl)-N-(tetrahydro-2H-pyran-4-yl)pyrazine-2-carboxamide trifluoroacetate] | < 100 | < 100 | 
Cc1ccc(C(O)(C(N)=O)C(F)(F)F)cc1-c1cnc(N)c(C(=O)NCC2(C#N)CC2)n1 (stereo not shown) [Example 4, 3-amino-6-(5-(3-amino-1,1,1-trifluoro-2-hydroxy-3-oxopropan-2-yl)-2-methylphenyl)-N-((1-cyanocyclopropyl)methyl)pyrazine-2-carboxamide trifluoroacetate] | < 100 | < 100 | 
Cc1ccc(C(O)(C(N)=O)C(F)(F)F)cc1-c1cnc(N)c(C(=O)NC(C)C)n1 (stereo not shown) [Example 5, 3-Amino-6-(5-(3-amino-1,1,1-trifluoro-2-hydroxy-3-oxopropan-2-yl)-2-methylphenyl)-N-isopropylpyrazine-2-carboxamide trifluoroacetate] | < 100 | < 100 | 
Cc1ccc(C(O)(C(N)=O)C(F)(F)F)cc1-c1cnc(N)c(C(=O)NC2CCC(F)(F)CC2)n1 (stereo not shown) [Example 6, 3-amino-6-(5-(3-amino-1,1,1-trifluoro-2-hydroxy-3-oxopropan-2-yl)-2-methylphenyl)-N-(4,4-difluorocyclohexyl)pyrazine-2-carboxamide trifluoroacetate] | < 100 | < 100 | 
CCNC(=O)c1nc(-c2cc(C(O)(C(N)=O)C(F)(F)F)ccc2C)cnc1N (stereo not shown) [Example 7, 3-Amino-6-(5-(3-amino-1,1,1-trifluoro-2-hydroxy-3-oxopropan-2-yl)-2-methylphenyl)-N-ethylpyrazine-2-carboxamide trifluoroacetate] | < 100 | < 100 | 
Cc1ccc(C(O)(C(N)=O)C(F)(F)F)cc1-c1cnc(N)c(C(=O)N[C@@H](C)CC#N)n1 (stereo partly drawn) [Example 8, 3-amino-6-(5-(3-amino-1,1,1-trifluoro-2-hydroxy-3-oxopropan-2-yl)-2-methylphenyl)-N-((S)-1-cyanopropan-2-yl)pyrazine-2-carboxamide trifluoroacetate] | < 100 | < 100 | 
Cc1ccc(C(O)(C(N)=O)C(F)(F)F)cc1-c1cnc(N)c(C(=O)N[C@@H]2CCCOC2)n1 (stereo partly drawn) [Example 9, 3-amino-6-(5-(3-amino-1,1,1-trifluoro-2-hydroxy-3-oxopropan-2-yl)-2-methylphenyl)-N-((R)-tetrahydro-2H-pyran-3-yl)pyrazine-2-carboxamide trifluoroacetate] | < 100 | < 100 | 
Cc1ccc(C(O)(C(N)=O)C(F)(F)F)cc1-c1cnc(N)c(C(=O)N[C@H]2CCCOC2)n1 (stereo partly drawn) [Example 10, 3-amino-6-(5-(3-amino-1,1,1-trifluoro-2-hydroxy-3-oxopropan-2-yl)-2-methylphenyl)-N-((S)-tetrahydro-2H-pyran-3-yl)pyrazine-2-carboxamide trifluoroacetate] | < 100 | < 100 | 
Cc1ccc(C(O)(C(N)=O)C(F)(F)F)cc1-c1cnc(N)c(C(=O)N[C@H]2CCOC2)n1 (stereo partly drawn) [Example 11, 3-amino-6-(5-(3-amino-1,1,1-trifluoro-2-hydroxy-3-oxopropan-2-yl)-2-methylphenyl)-N-((S)-tetrahydrofuran-3-yl)pyrazine-2-carboxamide trifluoroacetate] | < 100 | < 100 | 
Cc1ccc(C(O)(C(N)=O)C(F)(F)F)cc1-c1cnc(N)c(C(=O)N[C@@H](C)CO)n1 (stereo partly drawn) [Example 12, 3-amino-6-(5-(3-amino-1,1,1-trifluoro-2-hydroxy-3-oxopropan-2-yl)-2-methylphenyl)-N-((S)-1-hydroxypropan-2-yl)pyrazine-2-carboxamide] | < 100 | < 100 | 
Cc1ccc(C(O)(C(N)=O)C(F)(F)F)cc1-c1cnc(N)c(C(=O)NC(C)(C)CO)n1 (stereo not shown) [Example 13, 3-Amino-6-(5-(3-amino-1,1,1-trifluoro-2-hydroxy-3-oxopropan-2-yl)-2-methylphenyl)-N-(1-hydroxy-2-methylpropan-2-yl)pyrazine-2-carboxamide] | < 100 | < 100 | 
Cc1ccc(C(O)(C(N)=O)C(F)(F)F)cc1-c1cnc(N)c(C(=O)NCCC#N)n1 (stereo not shown) [Example 14, 3-amino-6-(5-(3-amino-1,1,1-trifluoro-2-hydroxy-3-oxopropan-2-yl)-2-methylphenyl)-N-(2-cyanoethyl)pyrazine-2-carboxamide trifluoroacetate] | < 100 | < 100 | 
Cc1ccc(C(O)(C(N)=O)C(F)(F)F)cc1-c1cnc(N)c(C(=O)NCC(C)(C)C#N)n1 (stereo not shown) [Example 15, 3-amino-6-(5-(3-amino-1,1,1-trifluoro-2-hydroxy-3-oxopropan-2-yl)-2-methylphenyl)-N-(2-cyano-2-methylpropyl)pyrazine-2-carboxamide trifluoroacetate] | < 100 | < 100 | 
Cc1ccc(C(O)(C(N)=O)C(F)(F)F)cc1-c1cnc(N)c(C(=O)NCC2(C#N)CCC2)n1 (stereo not shown) [Example 16, 3-amino-6-(5-(3-amino-1,1,1-trifluoro-2-hydroxy-3-oxopropan-2-yl)-2-methylphenyl)-N-((1-cyanocyclobutyl)methyl)pyrazine-2-carboxamide trifluoroacetate] | < 100 | < 100 | 
CC[C@@H](CC#N)NC(=O)c1nc(-c2cc(C(O)(C(N)=O)C(F)(F)F)ccc2C)cnc1N (stereo partly drawn) [Example 20, 3-amino-6-(5-(3-amino-1,1,1-trifluoro-2-hydroxy-3-oxopropan-2-yl)-2-methylphenyl)-N-((S)-1-cyanobutan-2-yl)pyrazine-2-carboxamide trifluoroacetate] | < 100 | < 100 | 
